Measured values as given in US20210123061A1, “METHODS AND COMPOSITIONS FOR TREATING INFLAMMATORY DISEASE OR DISORDER” (THE BRIGHAM AND WOMEN'S HOSPITAL, INC., priority 2018, published 2021).

Assays:
[1] = tested on: IFN-γ-induced chemokine mRNA; test: Real-time PCR of IFN-γ-induced genes in PBMC-derived macrophages; type: cell-based, human; details: 1 or 10 μM for two hours, then IFN-γ eight hours, vs DMSO
Procedure: FIGS. 4A-D show silencing RSK1 suppresses IFN-γ-induced chemokines in human primary macrophages. (FIG. 4A and FIG. 4B) Human PBMC-derived macrophages were treated with control siRNA or RSK1 siRNA followed by treatment with IFN-γ for the indicated time. Total RNA samples were subjected to real-time PCR analysis using the indicated probes and primers. GAPDH was used for normalization. (FIG. 4A) Representative results from one donor. Data are means±SD. (FIG. 4B) Quantification of the area-under-the-curve (AUC) plots of the real-time PCR data in panel (FIG. 4A). Data are means±SE. N=3 donors. *P<0.05 and **P<0.01 indicate significance for AUC of mRNA levels by paired Student's test. (FIG. 4C) Macrophages were treated with DMSO or BI-D1870 (1 or 10 μM) for two hours followed by stimulation with IFN-γ for eight hours. Total RNA samples were subjected to real-time PCR analysis using the indicated probes and primers. GAPDH was used for normalization. Data are means±SE. N=3-4 donors. *P<0.05 and **P<0.01 indicate significance for mRNA levels compared to control (treatment with DMSO and IFN-γ) by Dunnett's comparison test. […] Secreted chemokine levels were measured using ELISA. […]
Real-time PCR. […] The mRNA levels were determined by TaqMan-based real-time PCR reactions (Thermo Fisher Scientific). […] Data were normalized by human GAPDH and then calculated using the delta-delta Ct method.

STAT1-pSer727 = test: Anti-STAT1-pSer727 immunoprecipitation with parallel reaction monitoring mass spectrometry; type: cell-based, human; details: versus IFN-γ (plus DMSO) alone
Procedure: FIGS. 3A-3F show RSK1 is activated through JAK signaling and its inhibition suppresses STAT1 phosphorylation at Ser727 in human primary macrophages in response to IFN-γ. (FIG. 3A) PBMC-derived macrophages were pre-treated with DMSO or 10 μM a pan-JAK inhibitor, pyridone-6, for two hours and then stimulated with IFN-γ for indicated time under serum starvation. Cell lysates were subjected to immunoprecipitation with normal IgG or anti-RSK1 followed by immunoblot analysis using the indicated antibodies. WCL, whole cell lysate. N=3 donors. […] (FIG. 3D) Densitometric based quantification (ImageJ Software) of STAT1-pSer727 in panel (FIG. 3C) plus three additional donors. […] (FIG. 3F) Quantification of PRM ions (MS/MS ions) of the indicated STAT1 peptide harboring a phosphorylation at Ser727 (and oxidized methionine, m), generated from the digest of panel […].
Anti-STAT1-pSer727 IPs—The STAT1 peptide with phosphorylation at Ser727 was detected on the Orbitrap Fusion Lumos. […]
Anti-STAT1-pSer727 IPs—The three most abundant fragment ions of the target peptide (LQTTDNLLPmsPEEFDEVSR (SEQ ID NO: 5)-m10-oxidation, s11-phosphorylation, 806.3575 m/z, z=3) as annotated by SEQUEST (PD2.1) were used for quantification: y12^2+, 759.79455 m/z; c12^+, 1424.64911 m/z; b8^+, 899.48327 m/z. AUC of each fragment was calculated using the Skyline software (https://skyline.gs.washington.edu). […]

With `CC(C)CCN1c2nc(Nc3cc(F)c(O)c(F)c3)ncc2N(C)C(=O)C1C` (stereo not drawn) [BI-D1870] the “mRNA levels of pro-inflammatory chemokines such as CCL2/MCP-1” value [1] was “attenuated”, the STAT1-pSer727 recovered post-immunoprecipitation (STAT1-pSer727) was “less” and the “pSer727 site-specific signal, PRM of three EThcD fragment ions” value (STAT1-pSer727) was “decrease in signal”.
